According to ChEMBL document CHEMBL4765481, “Sialyltransferase Inhibitors Suppress Breast Cancer Metastasis” (J Med Chem, 2021):

What was measured:
[1] = Toxicity in human MDA-MB-231 cells assessed as cell survival at >60 uM relative to control; type: cell-based; details: read-out: Survival
[2] = target: T1, Sialyltransferase ST3Gal-I (Rattus norvegicus) (UniProt Q6H8N0); experiment: Inhibition of rat alpha-2,3-O-ST3GALI assessed as reduction in sialylated-product formation at 500 uM using p-nitrophenyl T-antigen and CMP-NeuSAc incubated for 15 mins by reverse-phase HPLC analysis relative to control
T1 sequence (whole entry): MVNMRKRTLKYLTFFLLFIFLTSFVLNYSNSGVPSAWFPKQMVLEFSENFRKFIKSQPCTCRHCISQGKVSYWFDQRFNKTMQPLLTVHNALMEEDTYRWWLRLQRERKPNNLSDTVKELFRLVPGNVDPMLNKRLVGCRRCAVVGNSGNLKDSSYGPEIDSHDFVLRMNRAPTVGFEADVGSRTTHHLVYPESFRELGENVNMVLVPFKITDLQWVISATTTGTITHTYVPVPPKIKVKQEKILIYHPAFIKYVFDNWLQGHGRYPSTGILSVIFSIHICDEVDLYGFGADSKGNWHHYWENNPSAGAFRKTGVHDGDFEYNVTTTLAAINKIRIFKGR

[3] = target: T2, Beta-galactoside alpha-2,6-sialyltransferase 1 (Homo sapiens, UniProt P15907); experiment: Inhibition of human alpha-2,6-ST6GAL1 assessed as reduction in sialylated-product formation using Gal-beta1-4GlcNac and CMP-NeuSAc incubated for 15 mins by reverse-phase HPLC analysis
T2 sequence (P15907 whole entry): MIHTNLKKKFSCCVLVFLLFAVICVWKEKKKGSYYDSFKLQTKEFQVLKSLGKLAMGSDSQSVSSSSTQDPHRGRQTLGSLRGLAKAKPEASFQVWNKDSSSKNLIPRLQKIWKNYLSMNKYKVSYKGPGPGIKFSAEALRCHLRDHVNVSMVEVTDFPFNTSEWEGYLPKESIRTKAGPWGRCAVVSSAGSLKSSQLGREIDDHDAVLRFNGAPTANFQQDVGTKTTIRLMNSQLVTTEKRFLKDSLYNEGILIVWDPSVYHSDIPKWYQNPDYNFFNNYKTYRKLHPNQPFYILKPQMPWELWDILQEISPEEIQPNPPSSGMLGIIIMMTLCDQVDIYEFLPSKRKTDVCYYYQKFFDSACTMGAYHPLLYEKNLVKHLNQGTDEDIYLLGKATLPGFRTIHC

[4] = Selectivity ratio of IC50 for of inhibition of rat alpha-2,3-O-ST3GALI to IC50 for inhibition of human alpha-2,6-ST6GAL1
[5] = target: T3, CMP-N-acetylneuraminate-beta-1,4-galactoside alpha-2,3-sialyltransferase (Rattus norvegicus, UniProt Q02734); experiment: Inhibition of rat alpha-2,3-N-ST3GALIII assessed as reduction in sialylated-product formation using Gal-beta1-4Glc and CMP-NeuSAc incubated for 1.5 hrs by reverse-phase HPLC analysis
T3 sequence (Q02734 whole entry): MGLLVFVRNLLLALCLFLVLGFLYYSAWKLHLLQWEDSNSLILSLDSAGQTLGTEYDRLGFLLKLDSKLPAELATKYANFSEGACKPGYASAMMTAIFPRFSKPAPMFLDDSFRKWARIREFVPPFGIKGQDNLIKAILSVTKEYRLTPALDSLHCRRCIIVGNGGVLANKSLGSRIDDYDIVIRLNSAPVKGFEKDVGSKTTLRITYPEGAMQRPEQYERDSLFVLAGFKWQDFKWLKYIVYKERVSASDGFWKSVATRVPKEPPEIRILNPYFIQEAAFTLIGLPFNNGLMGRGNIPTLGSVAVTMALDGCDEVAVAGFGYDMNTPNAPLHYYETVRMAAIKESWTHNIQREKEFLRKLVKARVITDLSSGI

Rattus norvegicus [6] = organism: Rattus norvegicus; experiment: Selectivity ratio of inhibition of rat alpha-2,3-O-ST3GALI at 500 uM to IC50 for inhibition of rat alpha-2,3-N-ST3GALIII
[7] = target: T1, Sialyltransferase ST3Gal-I (Rattus norvegicus); experiment: Inhibition of rat alpha-2,3-O-ST3GALI assessed as reduction in sialylated-product formation at 1 mM using p-nitrophenyl T-antigen and CMP-NeuSAc incubated for 15 mins by reverse-phase HPLC analysis relative to control
Rattus norvegicus [8] = organism: Rattus norvegicus; experiment: Selectivity ratio of inhibition of rat alpha-2,3-O-ST3GALI at 1000 uM to IC50 for inhibition of rat alpha-2,3-N-ST3GALIII
[9] = Apparent permeability at pH 7.4 by PAMPA
[10] = target: T4, Beta-galactoside alpha-2,6-sialyltransferase 1 (Homo sapiens) (UniProt P15907); experiment: Inhibition of human alpha-2,6-ST6GAL1 assessed as reduction in sialylated-product formation at 100 uM using Gal-beta1-4GlcNac and CMP-NeuSAc incubated for 15 mins by reverse-phase HPLC analysis relative to control
T4 sequence (whole entry): T2 sequence (P15907 whole entry)

[11] = target: T5, Sialyltransferase ST3Gal-I (Rattus norvegicus, UniProt Q6H8N0); experiment: Inhibition of rat alpha-2,3-O-ST3GALI assessed as reduction in sialylated-product formation using p-nitrophenyl T-antigen and CMP-NeuSAc incubated for 15 mins by reverse-phase HPLC analysis
T5 sequence (Q6H8N0 whole entry): T1 sequence (whole entry)

Rattus norvegicus [12] = organism: Rattus norvegicus; experiment: Selectivity ratio of IC50 for of inhibition of rat alpha-2,3-O-ST3GALI to IC50 for inhibition of rat alpha-2,3-N-ST3GALIII

SMILES	viability [1]	inhibition [2]	IC50 [3]	Ratio IC50 [4]	IC50 [5]	Selectivity ratio (Rattus norvegicus [6])	inhibition [7]	Selectivity ratio (Rattus norvegicus [8])	Papp [9]	inhibition [10]	IC50 [11]	Ratio IC50 (Rattus norvegicus [12])
C[C@H](CCC(=O)OCCOCCOCCN=[N+]=[N-])[C@H]1CC[C@H]2[C@@H]3CC[C@@H]4C[C@H](OC(=O)[C@H](CC(=O)O)NC(=O)c5ccc([N+](=O)[O-])cc5)CC[C@]4(C)[C@H]3CC[C@]12C	> 90%	0%	5.4 µM	> 94								
C[C@H](CCC(=O)OCCN=[N+]=[N-])[C@H]1CC[C@H]2[C@@H]3CC[C@@H]4C[C@H](OC(=O)[C@H](CC(=O)O)Nc5ccc([N+](=O)[O-])c6nonc56)CC[C@]4(C)[C@H]3CC[C@]12C	> 90%	0%	4.2 µM	> 119	0.8 µM	> 625						
C[C@H](CCC(=O)OCCOCCN=[N+]=[N-])[C@H]1CC[C@H]2[C@@H]3CC[C@@H]4C[C@H](OC(=O)[C@H](CC(=O)O)Nc5ccc([N+](=O)[O-])c6nonc56)CC[C@]4(C)[C@H]3CC[C@]12C	> 90%	0%	4.33 µM	> 116	0.77 µM	> 649	74%	< 1300				
COc1ccc2c(CC(=O)N[C@@H](CC(=O)O)C(=O)O[C@@H]3CC[C@@]4(C)[C@H](CC[C@@H]5[C@@H]4CC[C@]4(C)[C@@H]([C@H](C)CCC(=O)OCCOCCOCCOCCN=[N+]=[N-])CC[C@@H]54)C3)cc(=O)oc2c1	> 90%	0%	5 µM	> 101								
COc1ccc2c(CC(=O)N[C@@H](CC(=O)O)C(=O)O[C@@H]3CC[C@@]4(C)[C@H](CC[C@@H]5[C@@H]4CC[C@]4(C)[C@@H]([C@H](C)CCC(=O)OCCOCCOCCN=[N+]=[N-])CC[C@@H]54)C3)cc(=O)oc2c1	> 90%	0%	4.6 µM	> 109								
Cn1c(=O)c2[nH]cnc2n(C)c1=O.O [THEOPHYLLINE]									1.4 ×10⁻⁶ cm/s			
COc1ccc2c(CC(=O)N[C@@H](CC(=O)O)C(=O)O[C@@H]3CC[C@@]4(C)[C@H](CC[C@@H]5[C@@H]4CC[C@]4(C)[C@@H]([C@H](C)CCC(=O)OCCOCCN=[N+]=[N-])CC[C@@H]54)C3)cc(=O)oc2c1	> 90%	0%	5.1 µM	> 97								
COc1ccc2c(CC(=O)N[C@@H](CC(=O)O)C(=O)O[C@@H]3CC[C@@]4(C)[C@H](CC[C@@H]5[C@@H]4CC[C@]4(C)[C@@H]([C@H](C)CCC(=O)OCCOCCOCCOCCOCCN=[N+]=[N-])CC[C@@H]54)C3)cc(=O)oc2c1	> 90%	0%	5.7 µM	> 88								
C[C@@H]1O[C@@H](O[C@H]2[C@H](O[C@H]3[C@H](O[C@H]4CC[C@@]5(C)[C@@H](CC[C@]6(C)[C@@H]5CC=C5[C@@H]7CC(C)(C)C[C@@H](O)[C@]7(C)CC[C@]56C)[C@@]4(C)CO)O[C@H](C(=O)O)[C@@H](O)[C@@H]3O)O[C@H](CO)[C@H](O)[C@@H]2O)[C@H](O)[C@H](O)[C@H]1O		59%					83%			68%		
C[C@H](CCC(=O)OCCN=[N+]=[N-])[C@H]1CC[C@H]2[C@@H]3CC[C@@H]4C[C@H](OC(=O)[C@H](CC(=O)O)NC(=O)c5ccc([N+](=O)[O-])cc5)CC[C@]4(C)[C@H]3CC[C@]12C	> 90%	0%	7.2 µM	> 70								
C[C@H](CCC(=O)OCCOCCOCCOCCOCCN=[N+]=[N-])[C@H]1CC[C@H]2[C@@H]3CC[C@@H]4C[C@H](OC(=O)[C@H](CC(=O)O)Nc5ccc([N+](=O)[O-])c6nonc56)CC[C@]4(C)[C@H]3CC[C@]12C	> 90%	0%	5 µM	> 99	1 µM	> 516						
COc1ccc2c(CC(=O)N[C@@H](CC(=O)O)C(=O)O[C@@H]3CC[C@@]4(C)[C@H](CC[C@@H]5[C@@H]4CC[C@]4(C)[C@@H]([C@H](C)CCC(=O)OCCN=[N+]=[N-])CC[C@@H]54)C3)cc(=O)oc2c1	> 90%	0%	5.6 µM	> 89								
C[C@H](CCC(=O)O)[C@H]1CC[C@H]2[C@@H]3CC[C@@H]4C[C@H](OC(=O)[C@H](CCC(=O)O)Nc5ccc([N+](=O)[O-])c6nonc56)CC[C@]4(C)[C@H]3CC[C@]12C				9	0.9 µM						13.2 µM	15
C[C@H](CCC(=O)OCCOCCOCCOCCN=[N+]=[N-])[C@H]1CC[C@H]2[C@@H]3CC[C@@H]4C[C@H](OC(=O)[C@H](CC(=O)O)NC(=O)c5ccc([N+](=O)[O-])cc5)CC[C@]4(C)[C@H]3CC[C@]12C	> 90%	0%	5.7 µM	> 88								
C[C@H](CCC(=O)OCCOCCOCCOCCOCCN=[N+]=[N-])[C@H]1CC[C@H]2[C@@H]3CC[C@@H]4C[C@H](OC(=O)[C@H](CC(=O)O)NC(=O)c5ccc([N+](=O)[O-])cc5)CC[C@]4(C)[C@H]3CC[C@]12C	> 90%	0%	7.5 µM	> 67								
C[C@H](CCC(=O)OCCOCCN=[N+]=[N-])[C@H]1CC[C@H]2[C@@H]3CC[C@@H]4C[C@H](OC(=O)[C@H](CC(=O)O)NC(=O)c5ccc([N+](=O)[O-])cc5)CC[C@]4(C)[C@H]3CC[C@]12C	> 90%	0%	6.7 µM	> 74								
C[C@H](CCC(=O)NCC(=O)O)[C@H]1CC[C@H]2[C@@H]3CC[C@@H]4C[C@H](O)CC[C@]4(C)[C@H]3CC[C@]12C		15%					41%			9%		
C[C@H](CCC(=O)O)[C@H]1CC[C@H]2[C@@H]3CC[C@@H]4C[C@H](OC(=O)[C@@H](N)CC(=O)O)CC[C@]4(C)[C@H]3CC[C@]12C			15.8 µM	3	12 µM						39 µM	3
